Consider 26 molecules from US20240425479A1, “HALO-SUBSTITUTED AMINO AZA-HETEROARYL COMPOUNDS AS INHIBITORS OF THE HAEMATOPOIETIC PROGENITOR KINASE 1 (HPK1)” (priority 2021, published 2024).

SMILES strings stand for the structures.

The target of the assay is T1, Recombinant (1-346) HPK1 (h) (Homo sapiens, UniProt Q92918).
T1 construct: Recombinant (1-346) HPK1 (h) is incubated with 8 mM MOPS pH 7.0
T1 sequence (Q92918 1-346): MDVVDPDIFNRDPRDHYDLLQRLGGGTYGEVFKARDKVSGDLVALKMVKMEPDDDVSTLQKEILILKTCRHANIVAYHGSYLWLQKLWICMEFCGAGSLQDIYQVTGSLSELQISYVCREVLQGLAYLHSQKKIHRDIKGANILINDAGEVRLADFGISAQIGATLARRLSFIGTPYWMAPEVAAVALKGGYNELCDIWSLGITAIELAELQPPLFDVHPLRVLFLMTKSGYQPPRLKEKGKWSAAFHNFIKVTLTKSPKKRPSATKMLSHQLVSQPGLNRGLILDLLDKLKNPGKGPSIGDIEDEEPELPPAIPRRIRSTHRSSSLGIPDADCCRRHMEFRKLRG
Put plainly: HPK1 human STE kinase enzymatic radiometric assay. The format is biochemical. Conditions: read-out: HPK1 IC50 nM Range. Summed up: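 Compounds in 3-fold, 9-point serial dilution; kinase (residues 1-346) phosphorylates myelin basic protein (0.33 mg/mL) using [gamma-33P]-ATP at pH 7.0 (MOPS, EDTA, Mg acetate) for 40 min, room temperature. Acid-quenched mixture filtered onto P30 mats; incorporated radioactivity read by scintillation counting.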
Turning to `CCN1CCN(c2ccc(-c3nc(-c4cc5c(cc4F)C(=O)NCC5)c(N)nc3F)cc2)CC1` [Example I-56, 6-(3-amino-6-(4-(4-ethylpiperazin-1-yl)phenyl)-5-fluoropyrazin-2-yl)-7-fluoro-3,4-dihydroisoquinolin-1(2H)-one], the IC50 (in general, the midpoint of a concentration-inhibition curve) lay within 0.1 to 10 nM. On to `C[C@H]1CN(c2ccc(-c3nc(-c4ccc5c(c4)CCNC5=O)c(N)nc3F)cc2CN2CCC2)CCO1` [Example I-214, (S)-6-(3-amino-6-(3-(azetidin-1-ylmethyl)-4-(2-methylmorpholino)phenyl)-5-fluoropyrazin-2-yl)-3,4-dihydroisoquinolin-1(2H)-one], for which the IC50 lay within 0.1 to 10 nM.

On to `C[C@@H]1CN(c2ccc(-c3nc(-c4cc(F)c5c(c4)CCNC5=O)c(N)nc3F)cc2CN(C)C)C[C@H](C)O1` [Example I-197, 6-(3-amino-6-(3-((dimethylamino)methyl)-4-((2R,6S)-2,6-dimethylmorpholino)phenyl)-5-fluoropyrazin-2-yl)-8-fluoro-3,4-dihydroisoquinolin-1(2H)-one], for which the IC50 lay within 0.1 to 10 nM. As for `CN(C)[C@@H]1COc2ccc(-c3nc(-c4ccc5c(=O)[nH]cc(F)c5c4)c(N)nc3F)cc21` [Example I-251, (S)-6-(3-amino-6-(3-(dimethylamino)-2,3-dihydrobenzofuran-5-yl)-5-fluoropyrazin-2-yl)-4-fluoroisoquinolin-1(2H)-one], the half-inhibitory concentration (IC50) lay within 0.1 to 10 nM. As for `CN(C)Cc1cc(-c2nc(-c3ccc4c(=O)[nH]cc(F)c4c3)c(N)nc2F)cc(F)c1N1CCOCC1` [Example I-265, 6-(3-amino-6-(3-((dimethylamino)methyl)-5-fluoro-4-morpholinophenyl)-5-fluoropyrazin-2-yl)-4-fluoroisoquinolin-1(2H)-one], the IC50 lay within 0.1 to 10 nM. Regarding `CCN(C)Cc1cc(-c2nc(-c3ccc4c(=O)[nH]cc(C)c4c3)c(N)nc2F)ccc1C1CCOCC1` [Example I-239, 6-(3-amino-6-(3-((ethyl(methyl)amino)methyl)-4-(tetrahydro-2H-pyran-4-yl)phenyl)-5-fluoropyrazin-2-yl)-4-methylisoquinolin-1(2H)-one], the half-inhibitory concentration (IC50) lay in the range of 0.1 to 10 nM. `COC1CN(Cc2cc(-c3nc(-c4cc5c(cc4F)C(=O)NCC5)c(N)nc3F)ccc2C2CCOCC2)C1` [Example I-190, 6-(3-amino-5-fluoro-6-(3-((3-methoxyazetidin-1-yl)methyl)-4-(tetrahydro-2H-pyran-4-yl)phenyl)pyrazin-2-yl)-7-fluoro-3,4-dihydroisoquinolin-1(2H)-one]: the IC50 lay in the range of 0.1 to 10 nM. Consider `Nc1nc(F)c(-c2ccc(N3CCOCC3)c(CN3CCC3)c2F)nc1-c1ccc2c(c1)CCNC2=O` [Example I-243, 6-(3-amino-6-(3-(azetidin-1-ylmethyl)-2-fluoro-4-morpholinophenyl)-5-fluoropyrazin-2-yl)-3,4-dihydroisoquinolin-1(2H)-one], for which the IC50 was in the range of 11 to 100 nM.

In the case of `CCN(C)Cc1cc(-c2nc(-c3ccc4c(c3)CCNC4=O)c(N)nc2F)cc(C)c1OC` [Example I-297, 6-(3-amino-6-(3-((ethyl(methyl)amino)methyl)-4-methoxy-5-methylphenyl)-5-fluoropyrazin-2-yl)-3,4-dihydroisoquinolin-1(2H)-one], the IC50 lay in the range of 11 to 100 nM. As to `CO[C@H]1CCN(Cc2cc(-c3nc(-c4cc(F)c5c(c4)CCNC5=O)c(N)nc3F)ccc2N2CCOCC2)C1` [Example I-158, (S)-6-(3-amino-5-fluoro-6-(3-((3-methoxypyrrolidin-1-yl)methyl)-4-morpholinophenyl)pyrazin-2-yl)-8-fluoro-3,4-dihydroisoquinolin-1(2H)-one], the IC50 lay within 0.1 to 10 nM. To `C[C@@H]1CN(c2ccc(-c3nc(-c4cc(F)c5c(c4)CCNC5=O)c(N)nc3F)cc2CN(C)C)CCO1` [Example I-177, (R)-6-(3-amino-6-(3-((dimethylamino)methyl)-4-(2-methylmorpholino)phenyl)-5-fluoropyrazin-2-yl)-8-fluoro-3,4-dihydroisoquinolin-1(2H)-one] belongs 0.1 to 10 nM.

Turning to `CC(C)N1CCN(c2ccc(-c3nc(-c4cc5c(F)c[nH]c(=O)c5cc4F)c(N)nc3F)cc2)CC1` [Example I-140, 6-(3-amino-5-fluoro-6-(4-(4-isopropylpiperazin-1-yl)phenyl)pyrazin-2-yl)-4,7-difluoroisoquinolin-1(2H)-one], the half-maximal inhibitory concentration (IC50) lay in the range of 0.1 to 10 nM. Next, `Cc1c[nH]c(=O)c2ccc(-c3nc(-c4ccc5c(c4)[C@H](N(C)C)CO5)c(F)nc3N)cc12` [Example I-284, (S)-6-(3-amino-6-(3-(dimethylamino)-2,3-dihydrobenzofuran-5-yl)-5-fluoropyrazin-2-yl)-4-methylisoquinolin-1(2H)-one]: 11 to 100 nM; `CN(C)Cc1cccc(-c2nc(-c3ccc4c(=O)[nH]cc(F)c4c3)c(N)nc2F)c1` [Example I-281, 6-(3-amino-6-(3-((dimethylamino)methyl)phenyl)-5-fluoropyrazin-2-yl)-4-fluoroisoquinolin-1(2H)-one]: 11 to 100 nM; `CCN(C)Cc1c(N2CCOCC2)ccc(-c2nc(-c3ccc4c(c3)CCNC4=O)c(N)nc2F)c1F` [Example I-248, 6-(3-amino-6-(3-((ethyl(methyl)amino)methyl)-2-fluoro-4-morpholinophenyl)-5-fluoropyrazin-2-yl)-3,4-dihydroisoquinolin-1(2H)-one]: 11 to 100 nM.

As to `COCCN(C)Cc1cc(-c2nc(-c3cc4c(cc3F)C(=O)NCC4)c(N)nc2F)ccc1C1CCOCC1` [Example I-175, 6-(3-amino-5-fluoro-6-(3-(((2-methoxyethyl)(methyl)amino)methyl)-4-(tetrahydro-2H-pyran-4-yl)phenyl)pyrazin-2-yl)-7-fluoro-3,4-dihydroisoquinolin-1(2H)-one], the IC50 fell in the range of 0.1 to 10 nM.

For `Cc1[nH]c(=O)c2c(F)cc(-c3nc(-c4ccc(N5CCN(CC6CC6)CC5)cc4)c(F)nc3N)cc2c1Cl` [Example I-107, 6-(3-amino-6-(4-(4-(cyclopropylmethyl)piperazin-1-yl)phenyl)-5-fluoropyrazin-2-yl)-4-chloro-8-fluoro-3-methylisoquinolin-1(2H)-one], the IC50 was 0.1 to 10 nM.

Take `COC1CN(Cc2cc(-c3nc(-c4cc5c(cc4F)C(=O)NCC5)c(N)nc3F)ccc2N2CCOCC2)C1` [Example I-189, 6-(3-amino-5-fluoro-6-(3-((3-methoxyazetidin-1-yl)methyl)-4-morpholinophenyl)pyrazin-2-yl)-7-fluoro-3,4-dihydroisoquinolin-1(2H)-one]: the IC50 was 0.1 to 10 nM. To `Cc1nc2cc(-c3nc(-c4ccc(N5CC6(CN(C)CCO6)C5)cc4)c(F)nc3N)ccc2c(=O)[nH]1` [Example I-130, 7-(3-amino-5-fluoro-6-(4-(8-methyl-5-oxa-2,8-diazaspiro[3.5]nonan-2-yl)phenyl)pyrazin-2-yl)-2-methylquinazolin-4(3H)-one] belongs 101 to 1000 nM; to `CN(C)Cc1cc(-c2nc(-c3cc4c(cc3F)C(=O)NCC4)c(N)nc2F)ccc1N1CCOCC1` [Example I-65, 6-(3-amino-6-(3-((dimethylamino)methyl)-4-morpholinophenyl)-5-fluoropyrazin-2-yl)-7-fluoro-3,4-dihydroisoquinolin-1(2H)-one], 0.1 to 10 nM. To `Cc1cc2cc(-c3nc(-c4ccc(N5CCN(C(C)C)CC5)cc4)c(F)nc3N)c(F)cc2c(=O)[nH]1` [Example I-182, 6-(3-amino-5-fluoro-6-(4-(4-isopropylpiperazin-1-yl)phenyl)pyrazin-2-yl)-7-fluoro-3-methylisoquinolin-1(2H)-one] belongs 0.1 to 10 nM. To `Nc1nc(F)c(-c2ccc(N3CCN(CCCC(F)F)CC3)cc2)nc1-c1ccc2c(=O)[nH]cc(F)c2c1` [Example I-136, 6-(3-amino-6-(4-(4-(4,4-difluorobutyl)piperazin-1-yl)phenyl)-5-fluoropyrazin-2-yl)-4-fluoroisoquinolin-1(2H)-one] belongs 0.1 to 10 nM; to `COc1ccc(-c2nc(-c3ccc4c(c3)CCNC4=O)c(N)nc2F)cc1CN(C)C` [Example I-250, 6-(3-amino-6-(3-((dimethylamino)methyl)-4-methoxyphenyl)-5-fluoropyrazin-2-yl)-3,4-dihydroisoquinolin-1(2H)-one], 11 to 100 nM; to `Nc1nc(F)c(-c2ccc(N3CCN(C4COC4)CC3)cc2)nc1-c1cc2c(cc1F)C(=O)NCC2` [Example I-45, 6-(3-amino-5-fluoro-6-(4-(4-(oxetan-3-yl)piperazin-1-yl)phenyl)pyrazin-2-yl)-7-fluoro-3,4-dihydroisoquinolin-1(2H)-one], 11 to 100 nM. In the case of `CN(C)Cc1cc(-c2nc(-c3cc4c(cc3F)C(=O)NCC4)c(N)nc2F)ccc1OCC1CCOCC1` [Example I-179, 6-(3-amino-6-(3-((dimethylamino)methyl)-4-((tetrahydro-2H-pyran-4-yl)methoxy)phenyl)-5-fluoropyrazin-2-yl)-7-fluoro-3,4-dihydroisoquinolin-1(2H)-one], the IC50 was 0.1 to 10 nM. Consider `C[C@H]1CCCN1Cc1cc(-c2nc(-c3ccc4c(c3)C(F)(F)CNC4=O)c(N)nc2F)ccc1C1CCOCC1` [Example I-233, (S)-6-(3-amino-5-fluoro-6-(3-((2-methylpyrrolidin-1-yl)methyl)-4-(tetrahydro-2H-pyran-4-yl)phenyl)pyrazin-2-yl)-4,4-difluoro-3,4-dihydroisoquinolin-1(2H)-one], for which the IC50 is 0.1 to 10 nM.
